Reference: ChEMBL document CHEMBL4316596, “Antimicrobial Peptides with High Proteolytic Resistance for Combating Gram-Negative Bacteria” (J Med Chem, 2019)

Experiments:
Pseudomonas aeruginosa = experiment: Ratio of MBC against Pseudomonas aeruginosa ATCC 27853 after 50 passages to MBC against Pseudomonas aeruginosa ATCC 27853; assay type: functional
[1] = Stability of the compound assessed as Tritirachium album proteinase K-mediated compound hydrolysis after 1 hrs by SDS-PAGE analysis; assay type: ADME; details: parengyodontium album

With `CC[C@H](C)[C@H](NC(=O)CN)C(=O)NCC(=O)N[C@@H](C)C(=O)N[C@H](C(=O)N[C@@H](CC(C)C)C(=O)N[C@@H](CCCCN)C(=O)N[C@H](C(=O)N[C@@H](CC(C)C)C(=O)N[C@H](C(=O)N[C@H](C(=O)NCC(=O)N[C@@H](CC(C)C)C(=O)N1CCC[C@H]1C(=O)N[C@@H](C)C(=O)N[C@@H](CC(C)C)C(=O)N[C@H](C(=O)N[C@@H](CO)C(=O)N[C@@H](Cc1c[nH]c2ccccc12)C(=O)N[C@H](C(=O)N[C@@H](CCCCN)C(=O)N[C@@H](CCCNC(=N)N)C(=O)N[C@@H](CCCCN)C(=O)N[C@@H](CCCNC(=N)N)C(=O)N[C@@H](CCC(N)=O)C(=O)N[C@@H](CCC(N)=O)C(N)=O)[C@@H](C)CC)[C@@H](C)CC)[C@@H](C)O)[C@@H](C)O)C(C)C)C(C)C` [MELITTIN] the Ratio (Pseudomonas aeruginosa) was 256 and the Stability [1] was “Unstable”.
